Numbers after ± are expanded uncertainties.
Settings: Ring tensiometer

Compound: CCCCCC[n+]1ccn(C)c1.O=S(=O)([N-]S(=O)(=O)C(F)(F)F)C(F)(F)F
- surface tension liquid-gas (293.15 K): 32.31 ± 0.61 mN/m
- surface tension liquid-gas (303.15 K): 31.76 ± 0.6 mN/m
- surface tension liquid-gas (313.15 K): 31.2 ± 0.59 mN/m
- surface tension liquid-gas (323.15 K): 30.6 ± 0.58 mN/m
- surface tension liquid-gas (333.15 K): 30.16 ± 0.57 mN/m
- surface tension liquid-gas (343.15 K): 29.62 ± 0.56 mN/m

Compound: CCCCCCCCCCn1cc[n+](C)c1.O=S(=O)([N-]S(=O)(=O)C(F)(F)F)C(F)(F)F
- surface tension liquid-gas (293.15 K): 32.12 ± 0.6 mN/m
- surface tension liquid-gas (303.15 K): 31.34 ± 0.59 mN/m
- surface tension liquid-gas (313.15 K): 30.7 ± 0.58 mN/m
- surface tension liquid-gas (323.15 K): 30.1 ± 0.57 mN/m
- surface tension liquid-gas (333.15 K): 29.5 ± 0.56 mN/m
- surface tension liquid-gas (343.15 K): 28.68 ± 0.55 mN/m

Compound: CCCCCn1cc[n+](C)c1.O=S(=O)([N-]S(=O)(=O)C(F)(F)F)C(F)(F)F
- surface tension liquid-gas (293.15 K): 32.9 ± 0.62 mN/m
- surface tension liquid-gas (303.15 K): 32.41 ± 0.61 mN/m
- surface tension liquid-gas (313.15 K): 31.83 ± 0.6 mN/m
- surface tension liquid-gas (323.15 K): 31.27 ± 0.59 mN/m
- surface tension liquid-gas (333.15 K): 30.77 ± 0.58 mN/m
- surface tension liquid-gas (343.15 K): 30.31 ± 0.58 mN/m

Compound: CCCCCCCCn1cc[n+](C)c1.O=S(=O)([N-]S(=O)(=O)C(F)(F)F)C(F)(F)F
- surface tension liquid-gas (293.15 K): 31.93 ± 0.6 mN/m
- surface tension liquid-gas (303.15 K): 31.3 ± 0.59 mN/m
- surface tension liquid-gas (313.15 K): 30.57 ± 0.58 mN/m
- surface tension liquid-gas (323.15 K): 29.98 ± 0.57 mN/m
- surface tension liquid-gas (333.15 K): 29.4 ± 0.56 mN/m
- surface tension liquid-gas (343.15 K): 28.86 ± 0.55 mN/m

Compound: CCn1cc[n+](C)c1.O=S(=O)([N-]S(=O)(=O)C(F)(F)F)C(F)(F)F
- surface tension liquid-gas (293.15 K): 36.94 ± 0.68 mN/m
- surface tension liquid-gas (303.15 K): 36.43 ± 0.67 mN/m
- surface tension liquid-gas (313.15 K): 35.92 ± 0.66 mN/m
- surface tension liquid-gas (323.15 K): 35.51 ± 0.66 mN/m
- surface tension liquid-gas (333.15 K): 34.96 ± 0.65 mN/m
- surface tension liquid-gas (343.15 K): 34.57 ± 0.64 mN/m

Compound: CCCn1cc[n+](C)c1.O=S(=O)([N-]S(=O)(=O)C(F)(F)F)C(F)(F)F
- surface tension liquid-gas (293.15 K): 34.87 ± 0.65 mN/m
- surface tension liquid-gas (303.15 K): 34.22 ± 0.64 mN/m
- surface tension liquid-gas (313.15 K): 33.73 ± 0.63 mN/m
- surface tension liquid-gas (323.15 K): 33.31 ± 0.62 mN/m
- surface tension liquid-gas (333.15 K): 32.79 ± 0.61 mN/m
- surface tension liquid-gas (343.15 K): 32.18 ± 0.6 mN/m

Compound: CCCCCCCn1cc[n+](C)c1.O=S(=O)([N-]S(=O)(=O)C(F)(F)F)C(F)(F)F
- surface tension liquid-gas (293.15 K): 32 ± 0.6 mN/m
- surface tension liquid-gas (303.15 K): 31.36 ± 0.59 mN/m
- surface tension liquid-gas (313.15 K): 30.66 ± 0.58 mN/m
- surface tension liquid-gas (323.15 K): 30.02 ± 0.57 mN/m
- surface tension liquid-gas (333.15 K): 29.5 ± 0.56 mN/m
- surface tension liquid-gas (343.15 K): 28.95 ± 0.55 mN/m
- surface tension liquid-gas (353.15 K): 28.29 ± 0.54 mN/m

Compound: CCCC[n+]1ccn(C)c1.O=S(=O)([N-]S(=O)(=O)C(F)(F)F)C(F)(F)F
- surface tension liquid-gas (293.15 K): 33.6 ± 0.63 mN/m
- surface tension liquid-gas (303.15 K): 33.09 ± 0.62 mN/m
- surface tension liquid-gas (313.15 K): 32.5 ± 0.61 mN/m
- surface tension liquid-gas (323.15 K): 31.92 ± 0.6 mN/m
- surface tension liquid-gas (333.15 K): 31.35 ± 0.59 mN/m
- surface tension liquid-gas (343.15 K): 30.9 ± 0.58 mN/m
